target: T1, histone deacetylase, subtype 1 (HDAC1) (Homo sapiens, UniProt Q13547); assay: HDAC1-Flag assay (in vitro fluorescent deacetylation assay); assay type: biochemical; details: Table 1, compounds of formula II; epitope-tagged human HDAC1 complex, substrate at Km; mean ± spread (N); read-out: HDAC Inhibition (IC50) nm
T1 construct: Flag; made in house
Description: Novel compounds were tested for their ability to inhibit histone deacetylase, subtype 1 (HDAC1) using an in vitro deacetylation assay. The enzyme source for this assay was an epitope-tagged human HDAC1 complex immuno-purified from stably expressing mammalian cells. The substrate consisted of a commercial product containing an acetylated lysine side chain (BIOMOL Research Laboratories, Inc., Plymouth Meeting, Pa.). Upon deacetylation of the substrate by incubation with the purified HDAC1 complex, a fluorophore is produced that is directly proportional to the level of deacetylation.

T1 sequence (Q13547 whole entry): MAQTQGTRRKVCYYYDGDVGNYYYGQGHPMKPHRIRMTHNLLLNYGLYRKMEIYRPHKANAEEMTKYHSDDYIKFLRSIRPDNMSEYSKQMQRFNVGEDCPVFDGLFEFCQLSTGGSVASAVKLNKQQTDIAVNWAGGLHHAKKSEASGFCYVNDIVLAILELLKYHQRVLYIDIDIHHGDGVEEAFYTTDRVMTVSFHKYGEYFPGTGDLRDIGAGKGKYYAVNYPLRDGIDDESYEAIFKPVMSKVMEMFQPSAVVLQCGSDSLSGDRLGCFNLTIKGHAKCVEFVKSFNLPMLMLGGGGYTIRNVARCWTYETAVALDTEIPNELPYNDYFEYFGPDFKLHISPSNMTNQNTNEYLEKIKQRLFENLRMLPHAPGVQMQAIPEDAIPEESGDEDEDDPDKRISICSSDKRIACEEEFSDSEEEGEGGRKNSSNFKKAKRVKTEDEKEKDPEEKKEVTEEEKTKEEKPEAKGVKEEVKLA

Row | Compound | IC50 [nM]
1 | O=C(CCCCCC(=O)N(CC(=O)Nc1ccc(OCc2ccccc2)cc1)CC(=O)Nc1ccc(OCc2ccccc2)cc1)NO [Compound 16, Heptanedioic acid bis-[(4-benzyloxy-phenylcarbamoyl)-methyl]-amide hydroxyamide] | 91.5 ± 58.6
2 | O=C(CCCCCCC(=O)N(CC(=O)Nc1ccc2ncccc2c1)CC(=O)Nc1ccc2ncccc2c1)NO [Compound 17, Octanedioic acid bis-(quinolin-6-ylcarbamoylmethyl)-amide hydroxyamide] | 102 ± 33.2
3 | O=C(CCCCCC(=O)N(CC(=O)Nc1cccc(OCc2ccccc2)c1)CC(=O)Nc1cccc(OCc2ccccc2)c1)NO [Compound 18, Heptanedioic acid bis-[(3-benzyloxy-phenylcarbamoyl)-methyl]-amide hydroxyamide] | 159 ± 159
4 | O=C(CCCCCCC(=O)N(CC(=O)NCCc1ccccc1)CC(=O)NCCc1ccccc1)NO [Compound 19, Octanedioic acid bis-(phenethylcarbamoyl-methyl)-amide hydroxyamide] | 231 ± 65.5
5 | O=C(CCCCCCC(=O)N(CC(=O)NCc1ccccc1)CC(=O)NCc1ccccc1)NO [Compound 20, Octanedioic acid bis-(benzylcarbamoyl-methyl)-amide hydroxyamide] | 247 ± 99.9
6 | O=C(CCCCCCC(=O)N(CC(=O)NC1CCCCC1)CC(=O)NC1CCCCC1)NO [Compound 21, Octanedioic acid bis-cyclohexylcarbamoylmethyl-amide hydroxyamide] | 539 ± 97
7 | O=C(CCCCCCC(=O)N(CC(=O)Nc1ccc(OCc2ccccc2)cc1)CC(=O)Nc1ccc(OCc2ccccc2)cc1)NO [Compound 22, Octanedioic acid bis-[(4-benzyloxy-phenylcarbamoyl)-methyl]-amide hydroxyamide] | 848 ± 481
8 | O=C(CCCCCCC(=O)N(CC(=O)Nc1cccc(OCc2ccccc2)c1)CC(=O)Nc1cccc(OCc2ccccc2)c1)NO [Compound 23, Octanedioic acid bis-[(3-benzyloxy-phenylcarbamoyl)-methyl]-amide hydroxyamide] | 861 ± 403

Results, then the compound that gave them:

Row | IC50 [nM] | Compound
9 | 1 | O=C(CCCCCC(=O)N(CC(=O)Nc1ccc2[nH]ncc2c1)CC(=O)Nc1ccc2[nH]ncc2c1)NO [Compound 1, Heptanedioic acid bis-[(1H-indazol-5-ylcarbamoyl)-methyl]-amide hydroxyamide]
10 | 5.5 ± 0.7 | O=C(CCCCCC(=O)N(CC(=O)Nc1ccc2ncccc2c1)CC(=O)Nc1ccc2ncccc2c1)NO [Compound 2, Heptanedioic acid bis-(quinolin-ylcarbamoylmethyl)-amide hydroxyamide]
11 | 19 | O=C(CCCCCC(=O)N(CC(=O)Nc1ccc2c(c1)OCCO2)CC(=O)Nc1ccc2c(c1)OCCO2)NO [Compound 5, Heptanedioic acid bis-[(2,3-dihydro-benzo[1,4]dioxin-6-ylcarbamoyl)-methyl]-amide hydroxyamide]
12 | 27.5 ± 10.6 | O=C(CCCCCC(=O)N(CC(=O)NCc1ccccc1)CC(=O)Nc1ccccc1)NO [Compound 10, Heptanedioic acid (benzylcarbamoyl-methyl)-phenylcarbamoylmethyl-amide hydroxyamide]
13 | 58 ± 9.8 | O=C(CCCCCC(=O)N(CC(=O)NCCc1ccccc1)CC(=O)NCCc1ccccc1)NO [Compound 12, Heptanedioic acid bis-(phenethylcarbamoyl-methyl)-amide hydroxyamide]
14 | 61.5 ± 6.3 | O=C(CCCCCC(=O)N(CC(=O)NCc1ccccc1)CC(=O)NCc1ccccc1)NO [Compound 13, Heptanedioic acid bis-(benzylcarbamoyl-methyl)-amide hydroxyamide]
15 | 76 ± 14.1 | O=C(CCCCCC(=O)N(CC(=O)NC1CCCCC1)CC(=O)NC1CCCCC1)NO [Compound 14, Heptanedioic acid bis-cyclohexylcarbamoylmethyl-amide hydroxyamide]

same assay, conditions: Table 2, compounds of formula III; epitope-tagged human HDAC1 complex, substrate at Km; mean ± spread (N); read-out: HDAC Inhibition (IC50) nm

Row | Compound | IC50 [nM]
16 | 6-{Bis-[2-(3,4-dihydro-1H-isoquinolin-2-yl)-2-oxo-ethyl]-amino}-hexanoic acid hydroxyamide [Compound 46] | 153 ± 29.6

same assay, conditions: Table 3, compounds of formula IV; epitope-tagged human HDAC1 complex, substrate at Km; mean ± spread (N); read-out: HDAC Inhibition (IC50) nm

Row | Compound | IC50 [nM]
17 | 8-[4-(4-Chloro-phenyl)-piperazin-1-yl]-8-oxo-octanoic acid hydroxyamide [Compound 78] | 36.5 ± 4.9

— patent US20090023718A1 (Aton Pharma, Inc., priority 2003, published 2009)
